Reference: article PMC8421423, “Cellular model system to dissect the isoform-selectivity of Akt inhibitors” (Nature Communications, 2021)
Where “and” joins values, the source holds several entries; their conditions need not be identical. Identical values can stand only once. Like-named read-outs stand apart in the source and are kept apart here.

Legend:
pAkt2 = assay: Western blot analysis, PANC1 cells; format: cell-based, human; details: PANC1, 24-h treatment
Method: Cells were seeded into six-well tissue culture plates (Sarstedt) (BaF3 myr-Akt1/2/3: 10^6 cells/well, PANC1: 250.000 cells/well). […] Cell lysis was initiated by addition of 100 μL RIPA buffer (Cell Signaling Technology) per well supplemented with phosphatase and protease inhibitor cocktails (Sigma) followed by incubation on ice for 20 min. Cells were then harvested by scraping (PANC1) or centrifugation (BaF3). Whole cell lysates were cleared by centrifugation at 14,000×g/4 °C for 10 min and transferred into fresh, pre-cooled microcentrifuge tubes. Protein concentrations were determined using the Pierce BCA protein assay (Thermo) as per manufacturer’s instructions. Equal amounts of protein were separated by SDS-PAGE and transferred to Immobilon-FL PVDF membranes (Merck Millipore) using Pierce™ 1-step transfer buffer (Thermo) and the Pierce™ Power Blotter (Thermo). Membranes were washed for 5 min with ddH2O, blocked with Intercept®Blocking Buffer TBS (Li-Cor) for 1 h at room temperature, and then incubated with primary antibodies diluted in Intercept®Blocking Buffer TBS overnight at 4 °C with gentle agitation. On the next day, the membranes were washed three times with TBS-T (50 mM Tris, 150 mM NaCl, 0.05 % Tween 20, pH 7.4) for 5 min before being incubated with secondary antibodies diluted in Intercept®Blocking Buffer TBS for 1 h at room temperature with gentle agitation. Finally, the membranes were washed three times for 5 min with TBS-T and then scanned using an Odyssey®CLx imaging system (Li-Cor).

parental Ba/F3 cells = assay: CellTiter-Glo cell viability assay; format: cell-based, murine; details: for cell viability: CTG, parental
Method: (§1) On day 0, cells were plated into white 384-well cell culture plates (Greiner Bio-One) using a Multidrop reagent dispenser (Thermo Fisher Scientific) at cell numbers that ensure linear and optimal luminescent signal intensity (Ba/F3myr-Akt1: 600 cells/well, Ba/F3myr-Akt2: 800 cells/well, Ba/F3myr-Akt3: 800 cells/well). […] Cell viability was analyzed on day 4 using the CellTiter-Glo Assay (Promega) as per the manufacturer’s instructions. […] All experimental points were measured in duplicates for each plate and were replicated in at least three plates.

[1] = CellTiter-Glo cell viability assay; format: cell-based, murine; details: mouse, parental Ba/F3 cells, CTG, parental, single replicates
Method: as §1

Akt2 [2] = target: T1, Akt2 (Homo sapiens, UniProt P31751); assay: Cellular thermal shift assay (CETSA) in PANC1 cells; format: cell-based; parameters: purchased Thermo Fisher Scientific #PV3184
T1 sequence (P31751 whole entry): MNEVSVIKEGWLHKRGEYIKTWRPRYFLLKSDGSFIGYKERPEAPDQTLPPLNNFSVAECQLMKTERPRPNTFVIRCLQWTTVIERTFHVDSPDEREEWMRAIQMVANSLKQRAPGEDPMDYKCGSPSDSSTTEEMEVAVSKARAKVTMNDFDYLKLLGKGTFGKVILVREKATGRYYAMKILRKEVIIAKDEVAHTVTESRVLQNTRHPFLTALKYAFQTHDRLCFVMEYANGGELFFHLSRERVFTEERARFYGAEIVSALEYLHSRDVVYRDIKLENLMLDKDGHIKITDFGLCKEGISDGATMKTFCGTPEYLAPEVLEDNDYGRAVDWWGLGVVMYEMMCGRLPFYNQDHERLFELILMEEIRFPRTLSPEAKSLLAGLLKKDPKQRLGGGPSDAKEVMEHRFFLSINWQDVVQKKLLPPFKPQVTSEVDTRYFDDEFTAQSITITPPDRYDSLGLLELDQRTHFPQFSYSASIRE
Method: (§2) Cells were seeded into 100 mm tissue culture plates (Sarstedt) (PANC1: 10^6 cells). After 24 h incubation, cells were treated with 1 µM of inhibitors or DMSO and were incubated for 4.5 h. Cells were washed twice with ice-cold PBS and then suspended in 1 mL PBS. Cells were collected and separated into equal volumes (100 µL). The aliquots were treated individually with different temperatures for 3 min, followed by a 3 min incubation at room temperature. Cell lysis was initiated by adding 100 µL RIPA buffer and 2 freeze-thaw cycles in liquid nitrogen. The lysates were centrifuged at 21,130×g for 20 min at room temperature. The supernatants were transferred into fresh, pre-cooled microcentrifuge tubes, and analyzed by western blot analysis as described above.

Ba/F3^myr-Akt3 cells = assay: CellTiter-Glo cell viability assay; details: for cell viability: CTG
Ba/F3^myr-Akt1 cells = assay: CellTiter-Glo cell viability assay; details: for cell viability: CTG
Akt1 [3] = target: T2, Akt1 (Homo sapiens, UniProt P31749); assay: STK HTRF KinEASE activity-based assay (IC50)
T2 sequence (P31749 whole entry): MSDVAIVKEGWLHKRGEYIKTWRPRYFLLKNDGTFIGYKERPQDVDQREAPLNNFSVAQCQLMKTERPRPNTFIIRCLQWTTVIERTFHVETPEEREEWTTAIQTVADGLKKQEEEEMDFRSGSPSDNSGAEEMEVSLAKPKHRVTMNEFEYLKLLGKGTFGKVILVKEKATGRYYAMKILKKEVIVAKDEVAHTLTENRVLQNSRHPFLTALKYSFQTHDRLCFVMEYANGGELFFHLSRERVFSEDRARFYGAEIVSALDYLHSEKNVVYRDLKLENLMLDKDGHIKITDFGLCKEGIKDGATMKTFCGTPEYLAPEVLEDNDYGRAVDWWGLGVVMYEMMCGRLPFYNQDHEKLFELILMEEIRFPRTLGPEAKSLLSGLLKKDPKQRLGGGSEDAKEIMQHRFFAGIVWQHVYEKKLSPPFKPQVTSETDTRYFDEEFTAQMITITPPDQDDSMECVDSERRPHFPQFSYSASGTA

Ba/F3^myr-Akt2 cells = assay: CellTiter-Glo cell viability assay; details: for cell viability: CTG
Method: as §1

Akt3 [4] = target: T3, Akt3 (Homo sapiens, UniProt Q9Y243); assay: Cellular thermal shift assay (CETSA) in PANC1 cells; format: cell-based; parameters: purchased ProQinase #1578-0000-1
T3 sequence (Q9Y243 whole entry): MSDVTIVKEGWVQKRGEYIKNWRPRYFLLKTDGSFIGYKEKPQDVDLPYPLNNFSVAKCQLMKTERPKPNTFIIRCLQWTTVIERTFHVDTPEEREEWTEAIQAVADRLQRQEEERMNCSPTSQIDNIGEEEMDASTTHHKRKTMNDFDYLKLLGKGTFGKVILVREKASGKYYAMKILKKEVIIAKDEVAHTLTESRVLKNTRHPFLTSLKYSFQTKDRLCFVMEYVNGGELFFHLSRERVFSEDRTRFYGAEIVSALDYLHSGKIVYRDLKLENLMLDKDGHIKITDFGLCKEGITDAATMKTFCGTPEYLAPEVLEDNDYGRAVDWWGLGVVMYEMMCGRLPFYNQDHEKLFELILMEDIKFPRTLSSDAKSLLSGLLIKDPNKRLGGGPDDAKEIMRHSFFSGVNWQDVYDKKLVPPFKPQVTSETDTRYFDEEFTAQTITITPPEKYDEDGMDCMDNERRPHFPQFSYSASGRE
Method: as §2

Akt3 [5] = target: T3, Akt3; assay: STK HTRF KinEASE activity-based assay (IC50)
Akt2 [6] = target: T1, Akt2; assay: STK HTRF KinEASE activity-based assay (IC50)
Akt1 [7] = target: T2, Akt1; assay: Cellular thermal shift assay (CETSA) in PANC1 cells; format: cell-based; parameters: purchased ProQinase #1379-0000-2
Method: as §2

[8] = CETSA PANC1, 0.3 µM, temperature 39.9
[9] = CETSA PANC1, 0.3 µM, temperature 43.5
[10] = CETSA PANC1, 0.3 µM, temperature 48.4
[11] = CETSA PANC1, 0.3 µM, temperature 53.8
[12] = CETSA PANC1, 0.3 µM, temperature 58.1
[13] = CETSA PANC1, 0.3 µM, temperature 61.4
[14] = CETSA PANC1, 0.3 µM, temperature 65.6
[15] = CETSA PANC1, 0.3 µM, temperature 70.9
[16] = CETSA PANC1, 0.3 µM, temperature 76
[17] = CETSA PANC1, 0.3 µM, temperature 79.9
[18] = CETSA PANC1, 1 µM, temperature 39.9
[19] = CETSA PANC1, 1 µM, temperature 43.5
[20] = CETSA PANC1, 1 µM, temperature 48.4
[21] = CETSA PANC1, 1 µM, temperature 53.8
[22] = CETSA PANC1, 1 µM, temperature 58.1
[23] = CETSA PANC1, 1 µM, temperature 61.4
[24] = CETSA PANC1, 1 µM, temperature 65.6
[25] = CETSA PANC1, 1 µM, temperature 70.9
[26] = CETSA PANC1, 1 µM, temperature 76
[27] = CETSA PANC1, 1 µM, temperature 79.9
[28] = cell viability assay Ba/F3 myr-Akt cells, log units

SMILES: C=CC(=O)Nc1ccc2[nH]c(=O)n(C3CCN(Cc4ccc(-c5ncccc5-c5ccccc5)cc4)CC3)c2c1 [compound 1]
- pAkt2 level (immunoblot) (pAkt2): downregulation of pAkt1 and pAkt2
- cell viability (parental Ba/F3 cells; 0.1 nM, single replicates, 0.0001 µM): 107.4 % of control and 103.8 % of control
- cell viability (parental Ba/F3 cells; 5000 nM, single replicates, 5 µM): 99.2 % of control and 101.9 % of control
- EC50 (parental Ba/F3 cells; Mus musculus, BaF3, parental cells, mean of replicates, read-out: CTG BaF3, Mean): 6.89 µM
- EC50 (parental Ba/F3 cells; Mus musculus, BaF3, parental cells, single replicates, read-out: CTG BaF3, individual determinations): 7.69 µM
- EC50 (parental Ba/F3 cells; parental cells, single replicates, read-out: CTG BaF3, individual determinations): 6.99 µM and 6 µM
- viability at 3 days, 0.0001 µM ([1]; 0.1 nM, read-out: cell viability): 100%
- viability at 3 days, 5 µM ([1]; 5000 nM): 106%
- tAkt2 % (Akt2 [2]; [8]): 100.00%
- tAkt2 % (Akt2 [2]; [9]): 64.53%
- tAkt2 % (Akt2 [2]; [10]): 56.84%
- tAkt2 % (Akt2 [2]; [11]): 46.79%
- tAkt2 % (Akt2 [2]; [12]): 50.34%
- tAkt2 % (Akt2 [2]; [13]): 34.71%
- tAkt2 % (Akt2 [2]; [14]): 11.57%
- tAkt2 % (Akt2 [2]; [15]): 0.00%
- tAkt2 % (Akt2 [2]; [16]): 3.97%
- tAkt2 % (Akt2 [2]; [17]): 0.00%
- tAkt2 % (Akt2 [2]; [18]): 100.00%
- tAkt2 % (Akt2 [2]; [19]): 102.86%
- tAkt2 % (Akt2 [2]; [20]): 75.10%
- tAkt2 % (Akt2 [2]; [21]): 33.02%
- tAkt2 % (Akt2 [2]; [22]): 70.90%
- tAkt2 % (Akt2 [2]; [23]): 3.44%
- tAkt2 % (Akt2 [2]; [24]): 7.92%
- tAkt2 % (Akt2 [2]; [25]): -2.39%
- tAkt2 % (Akt2 [2]; [26]): 37.12%
- tAkt2 % (Akt2 [2]; [27]): 0.00%
- cell viability (Ba/F3^myr-Akt3 cells; myr-Akt3, 0.1 nM, single replicates, 0.0001 µM): 105.8 % of control and 97.9 % of control
- cell viability (Ba/F3^myr-Akt3 cells; myr-Akt3, 5000 nM, single replicates, 5 µM): 61.6 % of control and 92.9 % of control and 84.6 % of control
- EC50 (Ba/F3^myr-Akt3 cells; Mus musculus, read-out: CTG BaF3myr-Akt3, Mean, mean of replicates): > 30 µM
- EC50 (Ba/F3^myr-Akt3 cells; Mus musculus, read-out: CTG BaF3myr-Akt3, individual determinations, single replicates): > 30 µM
- EC50 (Ba/F3^myr-Akt3 cells; Mus musculus, read-out: EC50 BaF3myr-Akt3, CTG): > 30 µM
- viability at 0.0001 µM (Ba/F3^myr-Akt3 cells; Mus musculus, read-out: cell viability, CTG, myr-Akt3, 0.1 nM, single replicates): 103%
- Log ratio EC50 [Akt] / EC50 [Akt], Akt3 / Akt2 (Ba/F3^myr-Akt3 cells; [28]): -0.83
- EC50 (Ba/F3^myr-Akt3 cells; read-out: CTG BaF3myr-Akt3, individual determinations, single replicates): > 30 µM
- cell viability (Ba/F3^myr-Akt1 cells; myr-Akt1, 0.1 nM, single replicates, 0.0001 µM): 91.2 % of control and 96.3 % of control
- cell viability (Ba/F3^myr-Akt1 cells; myr-Akt1, 5000 nM, single replicates, 5 µM): 6.7 % of control and 13.9 % of control and 18.5 % of control
- EC50 (Ba/F3^myr-Akt1 cells; Mus musculus, read-out: CTG BaF3myr-Akt1, Mean, mean of replicates): 1790 nM
- viability at 0.0001 µM (Ba/F3^myr-Akt1 cells; Mus musculus, read-out: cell viability, CTG, myr-Akt1, 0.1 nM, single replicates): 85.5%
- Log ratio EC50 [Akt] / EC50 [Akt], Akt1 / Akt2 (Ba/F3^myr-Akt1 cells; [28]): -0.40
- EC50 (Ba/F3^myr-Akt1 cells; read-out: CTG BaF3myr-Akt1, individual determinations, single replicates): 1190 nM and 1500 nM and 2670 nM
- IC50 (Akt1 [3]; HTRF IC50 Akt1, individual determinations, single replicates): 43.9 nM and 72.2 nM and 42.8 nM
- IC50 (Akt1 [3]; IC50 Akt1, HTRF, ATP at KM, 1 h preincubation): 53 ± 13 nM
- Log ratio IC50 [Akt] / IC50 [Akt], Akt1 / Akt2 (Akt1 [3]; biochemical activity based assay, log units): -1.05
- cell viability (Ba/F3^myr-Akt2 cells; myr-Akt2, 0.1 nM, single replicates, 0.0001 µM): 96.6 % of control and 111.8 % of control
- cell viability (Ba/F3^myr-Akt2 cells; myr-Akt2, 5000 nM, single replicates, 5 µM): 74.8 % of control and 79.6 % of control
- EC50 (Ba/F3^myr-Akt2 cells; Mus musculus, read-out: CTG BaF3myr-Akt2, Mean, mean of replicates): 4.47 µM
- viability at 0.0001 µM (Ba/F3^myr-Akt2 cells; Mus musculus, read-out: cell viability, CTG, myr-Akt2, 0.1 nM, single replicates): 105%
- viability at 5 µM (Ba/F3^myr-Akt2 cells; Mus musculus, read-out: cell viability, CTG, myr-Akt2, 5000 nM, single replicates): 84.5%
- EC50 (Ba/F3^myr-Akt2 cells; read-out: CTG BaF3myr-Akt2, individual determinations, single replicates): 6.33 µM and 5.56 µM and 1.52 µM
- tAkt3 % (Akt3 [4]; [8]): 100.00%
- tAkt3 % (Akt3 [4]; [9]): 53.46%
- tAkt3 % (Akt3 [4]; [10]): 48.12%
- tAkt3 % (Akt3 [4]; [11]): 46.68%
- tAkt3 % (Akt3 [4]; [12]): 22.77%
- tAkt3 % (Akt3 [4]; [13]): 21.02%
- tAkt3 % (Akt3 [4]; [14]): 20.86%
- tAkt3 % (Akt3 [4]; [15]): 9.30%
- tAkt3 % (Akt3 [4]; [16]): 7.63%
- tAkt3 % (Akt3 [4]; [17]): 0.00%
- tAkt3 % (Akt3 [4]; [18]): 100.00%
- tAkt3 % (Akt3 [4]; [19]): 12.48%
- tAkt3 % (Akt3 [4]; [20]): 11.45%
- tAkt3 % (Akt3 [4]; [21]): 15.32%
- tAkt3 % (Akt3 [4]; [22]): 13.90%
- tAkt3 % (Akt3 [4]; [23]): 14.16%
- tAkt3 % (Akt3 [4]; [24]): 2.70%
- tAkt3 % (Akt3 [4]; [25]): 0.26%
- tAkt3 % (Akt3 [4]; [26]): 0.00%
- tAkt3 % (Akt3 [4]; [27]): 0.00%
- IC50 (Akt3 [5]; HTRF IC50 Akt3, individual determinations, single replicates): 5.63 µM and 8.2 µM and 6.05 µM
- IC50 (Akt3 [5]; IC50 Akt3, HTRF, ATP at KM, 1 h preincubation): 6.63 ± 1.13 µM
- loss of activity for Akt3 compared to Akt1 (Akt3 [5]; biochemical IC50): 100 fold
- IC50 (Akt2 [6]; HTRF IC50 Akt2, Mean, mean of replicates): 599 nM
- IC50 (Akt2 [6]; HTRF IC50 Akt2, individual determinations, single replicates): 658 nM and 512 nM and 626 nM
- IC50 (Akt2 [6]; IC50 Akt2, HTRF, ATP at KM, 1 h preincubation): 599 ± 63 nM
- loss of activity for Akt2 compared to Akt1 (Akt2 [6]; biochemical IC50): 10 fold
- tAkt1 % (Akt1 [7]; [8]): 100.00%
- tAkt1 % (Akt1 [7]; [9]): 101.52%
- tAkt1 % (Akt1 [7]; [10]): 79.62%
- tAkt1 % (Akt1 [7]; [11]): 74.15%
- tAkt1 % (Akt1 [7]; [12]): 68.37%
- tAkt1 % (Akt1 [7]; [13]): 51.95%
- tAkt1 % (Akt1 [7]; [14]): 36.13%
- tAkt1 % (Akt1 [7]; [15]): 22.45%
- tAkt1 % (Akt1 [7]; [16]): 11.95%
- tAkt1 % (Akt1 [7]; [17]): 0.00%
- tAkt1 % (Akt1 [7]; [18]): 100.00%
- tAkt1 % (Akt1 [7]; [19]): 88.73%
- tAkt1 % (Akt1 [7]; [20]): 82.43%
- tAkt1 % (Akt1 [7]; [21]): 73.59%
- tAkt1 % (Akt1 [7]; [22]): 56.69%
- tAkt1 % (Akt1 [7]; [23]): 2.43%
- tAkt1 % (Akt1 [7]; [24]): 11.71%
- tAkt1 % (Akt1 [7]; [25]): 5.41%
- tAkt1 % (Akt1 [7]; [26]): 0.00%
- tAkt1 % (Akt1 [7]; [27]): 0.00%
- thermal stabilization of Akt1 (CETSA, in words) (Akt1 [7]; PANC1, 0.3 µM): preferred stabilization of Akt1
- thermal stabilization of Akt1 (CETSA, in words) (Akt1 [7]; PANC1, 1 µM): losing this selectivity
